The target of assay [1] is T1, Mast cell carboxypeptidase A (Homo sapiens, UniProt P15088).
T1 sequence (P15088 whole entry): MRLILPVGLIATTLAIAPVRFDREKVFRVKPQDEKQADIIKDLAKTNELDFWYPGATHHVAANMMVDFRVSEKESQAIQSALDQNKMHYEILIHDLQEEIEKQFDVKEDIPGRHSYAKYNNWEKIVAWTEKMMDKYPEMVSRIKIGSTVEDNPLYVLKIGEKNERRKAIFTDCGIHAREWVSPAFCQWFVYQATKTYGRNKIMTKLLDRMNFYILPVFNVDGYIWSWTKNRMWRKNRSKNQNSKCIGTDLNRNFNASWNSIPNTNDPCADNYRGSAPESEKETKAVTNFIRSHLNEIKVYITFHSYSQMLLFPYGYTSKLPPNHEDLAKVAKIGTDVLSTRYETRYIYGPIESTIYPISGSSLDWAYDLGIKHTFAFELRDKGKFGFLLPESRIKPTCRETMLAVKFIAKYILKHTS
Description: Compound was tested for inhibitory activity against carboxypeptidase A; Not active.

Assay [2] in a line: Compound was tested for inhibitory activity against Carboxypeptidase A.

Structures are written as SMILES.

Turning to `O=C(O)[C@H](CS)Cc1ccccc1`, in assay [1], the Ki (usually the equilibrium dissociation constant of an inhibitor or competing ligand from its target) is listed as “Not Active”.

As to `O=C(O)C(CS)Cc1ccccc1` (racemic), affinity in assay [2] was put at a Ki of 11 µM.

The values are drawn from ChEMBL document CHEMBL1151589, “Synthesis and inhibitory activity of optically active 2-benzyl-3-mercaptopropanoic acid against carboxypeptidase A” (Bioorg Med Chem Lett, 1993).
